The values below come from patent publication US20200165291A1, “NEUROACTIVE STEROIDS, COMPOSITIONS, AND USES THEREOF” (Sage Therapeutics, Inc., priority 2014, published 2020).

Experiment [1] deals with T1, recombinant α4β3δ GABAA receptors (Homo sapiens, UniProt P28472+P48169).
T1 construct: expressed in transfected cells; host or cells: CHO cells (transient transfection, Lipofectamine)
Kind of experiment: Patch clamp electrophysiology, manual patch, CHO cells. The class given is cell-based. The conditions noted are these: 10 μM test article, GABA EC20 = 2 μM, read-out: GABA (α4β3δ) Manual patch in CHO, % efficacy at 10 μM.

Experiment [2] concerns the target [35S]-TBPS binding, rat brain cortical membranes (GABA receptor complex). As to the kind of experiment: [35S]-TBPS binding (steroid inhibition of TBPS binding). The conditions noted are these: in the presence of 5 μM GABA, read-out: 35S-TBPS Radioligand Displacement. Here is the method:
[35S]-t-Butylbicyclophosphorothionate (TBPS) binding assays using rat brain cortical membranes in the presence of 5 μM GABA has been described (Gee et al, J. Pharmacol. Exp. Ther. 1987, 241, 346-353; Hawkinson et al, Mol. Pharmacol. 1994, 46, 977-985; Lewin, A. H et al., Mol. Pharmacol. 1989, 35, 189-194).
Briefly, cortices are rapidly removed following decapitation of carbon dioxide-anesthetized Sprague-Dawley rats (200-250 g). The cortices are homogenized in 10 volumes of ice-cold 0.32 M sucrose using a glass/teflon homogenizer and centrifuged at 1500×g for 10 min at 4° C. The resultant supernatants are centrifuged at 10,000×g for 20 min at 4° C. to obtain the P2 pellets. The P2 pellets are resuspended in 200 mM NaCl/50 mM Na-K phosphate pH 7.4 buffer and centrifuged at 10,000×g for 10 min at 4° C. This washing procedure is repeated twice and the pellets are resuspended in 10 volumes of buffer. Aliquots (100 μL) of the membrane suspensions are incubated with 3 nM [^35S]-TBPS and 5 μL aliquots of test drug dissolved in dimethyl sulfoxide (DMSO) (final 0.5%) in the presence of 5 μM GABA. The incubation is brought to a final volume of 1.0 mL with buffer. Nonspecific binding is determined in the presence of 2 μM unlabeled TBPS and ranged from 15 to 25%. Following a 90 min incubation at room temp, the assays are terminated by filtration through glass fiber filters (Schleicher and Schuell No. 32) using a cell harvester (Brandel) and rinsed three times with ice-cold buffer. Filter bound radioactivity is measured by liquid scintillation spectrometry. Non-linear curve fitting of the overall data for each drug averaged for each concentration is done using Prism (GraphPad). […] The concentration of test compound producing 50% inhibition (IC50) of specific binding and the maximal extent of inhibition (Imax) are determined for the individual experiments with the same model used for the overall data and then the means±SEM.s of the individual experiments are calculated.
Various compounds are or can be screened to determine their potential as modulators of [^35S]-TBPS binding in vitro. These assays are or can be performed in accordance with the above discussed procedures.
Background: In a radioligand displacement assay an active substance lowers the binding of a labelled ligand.

For another experiment, the system named is male Sprague Dawley rats. Kind of experiment: Loss of righting reflex in rats. The class given is in vivo. The conditions noted are these: Rat IV, 5 mpk. As for the experimental part: Loss of Righting Reflex in Rats
The plasma pharmacokinetics and a qualitative assessment of sedation were obtained in male Sprague Dawley rats according to the following procedure. Rats were dosed by intravenous bolus dose (60 seconds) via the foot dorsal vein at doses ranging from 5 to 15 mg/kg in an appropriate vehicle. In order to assess sedation, rats were gently restrained by hand to a lateral position for dose administration. […] If the animal was unable to return to an upright position, the time was recorded as the onset of loss of righting reflex (LRR). […] Sluggish or incomplete righting twice consecutively within a 30 second interval qualifies as a loss of righting reflex. After onset of LRR, animals were assessed every 5 minutes in the same manner. Recovery of righting reflex is defined as the ability of a rat to right itself completely within 20 seconds of being placed in dorsal recumbency. The duration of LRR is defined as the time interval between LRR and the return of righting reflex.

The target in experiment [3] is T2, recombinant α1β2γ2 GABAA receptors (Homo sapiens, UniProt P14867+P47870).
T2 construct: expressed in transfected cells
T2 sequence (P14867 28-456): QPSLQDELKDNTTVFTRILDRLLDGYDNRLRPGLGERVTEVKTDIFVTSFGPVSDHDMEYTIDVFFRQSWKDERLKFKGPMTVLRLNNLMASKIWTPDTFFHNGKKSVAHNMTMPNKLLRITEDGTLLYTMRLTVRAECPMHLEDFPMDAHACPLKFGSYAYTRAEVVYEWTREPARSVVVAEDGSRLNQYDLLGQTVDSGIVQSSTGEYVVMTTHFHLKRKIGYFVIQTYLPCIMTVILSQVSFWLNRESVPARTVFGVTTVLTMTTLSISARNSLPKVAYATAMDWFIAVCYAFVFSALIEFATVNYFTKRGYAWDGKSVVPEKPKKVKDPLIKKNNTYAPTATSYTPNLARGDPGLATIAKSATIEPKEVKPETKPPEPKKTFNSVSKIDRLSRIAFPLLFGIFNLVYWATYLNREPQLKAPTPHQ
T2 sequence (P47870 25-512 limits assumed): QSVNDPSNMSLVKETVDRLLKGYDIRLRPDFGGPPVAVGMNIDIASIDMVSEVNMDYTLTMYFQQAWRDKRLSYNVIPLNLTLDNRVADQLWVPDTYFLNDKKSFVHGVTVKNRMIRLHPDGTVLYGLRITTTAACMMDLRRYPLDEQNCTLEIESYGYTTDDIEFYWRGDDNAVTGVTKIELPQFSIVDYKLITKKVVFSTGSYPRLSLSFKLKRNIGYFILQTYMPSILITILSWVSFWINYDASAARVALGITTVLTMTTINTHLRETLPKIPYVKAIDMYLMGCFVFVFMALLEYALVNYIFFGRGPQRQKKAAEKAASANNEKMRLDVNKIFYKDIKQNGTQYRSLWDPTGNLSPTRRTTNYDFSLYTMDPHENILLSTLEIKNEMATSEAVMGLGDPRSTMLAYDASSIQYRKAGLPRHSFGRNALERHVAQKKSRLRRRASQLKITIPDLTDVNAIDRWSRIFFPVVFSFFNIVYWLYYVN
T2 sequence (P18507 40-475 partner): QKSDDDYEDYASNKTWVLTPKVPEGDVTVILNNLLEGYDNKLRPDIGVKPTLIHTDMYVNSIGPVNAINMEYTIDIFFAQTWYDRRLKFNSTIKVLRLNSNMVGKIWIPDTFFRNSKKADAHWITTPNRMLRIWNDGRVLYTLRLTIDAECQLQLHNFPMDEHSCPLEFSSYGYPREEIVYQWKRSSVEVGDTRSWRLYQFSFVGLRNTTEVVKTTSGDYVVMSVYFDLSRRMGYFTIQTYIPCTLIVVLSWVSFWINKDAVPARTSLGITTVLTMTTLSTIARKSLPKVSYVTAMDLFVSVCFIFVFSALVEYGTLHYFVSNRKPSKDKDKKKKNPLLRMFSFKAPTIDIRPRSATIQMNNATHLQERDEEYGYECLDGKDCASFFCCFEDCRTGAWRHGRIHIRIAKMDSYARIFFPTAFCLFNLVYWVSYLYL
Kind of experiment: Patch clamp electrophysiology, QPatch, LTK cells. The class given is cell-based. The conditions noted are these: 10 μM test article, GABA EC20 = 2 μM, read-out: GABA (α1β2γ2) Qpatch in Ltk, % efficacy at 10 μM.

Experiment [4] has as its system PTZ-treated male CD-1 mice. As to the kind of experiment: Acute PTZ (pentylenetetrazol-induced seizure) method in mice. Particulars: Mus musculus, PO (oral administration), latency to tonic seizures, read-out: Anticonvulsive Effect Dose (minimal effective anticonvulsant dose). The class given is in vivo. Here is the method:
The anticonvulsant effect of test compounds were assessed in the pentylenetetazol-induced seizure assay in mice similar to methods described in Giardina & Gasior (2009) Curr Protoc Pharmacol., Chapter 5. Male CD-1 mice were housed in groups of five under controlled conditions (temperature of 22±2° C. and 12:12 light-dark cycle, lights on at 8:00 am) and water and food were available ad libitum. The mice were housed for 1 week prior to behavioral testing, at which time they weighed 25-35 g. Pentylenetetrazol (PTZ, Sigma) was dissolved in sterile 0.9% saline at a concentration of 12 mg/mL concentration for subcutaneous administration. Test compounds were formulated and administered via oral gavage or intraperitoneal injection at a predetermined time-point (typically 30 or 60 minutes) prior to PTZ injection. All solutions were made fresh and were given in a volume of 10 ml/kg body weight.
Mice were acclimated to the test room for at least 30 min before compound administration. Mice were randomized into at least four test groups (vehicle and at least three doses of the test compound) with 10 mice per group. […] Following the drug pretreatment time the mice were injected s.c. with PTZ (120 mg/kg). Immediately following the PTZ injection, mice were individually placed into observation chambers (25×15×15 cm) and a three-channel timer was started. Each mouse was continuously observed for 30 min and the following behaviors were recorded by observers blinded to the treatments: 1) latency to clonic convulsions that persist for 3 sec and followed by an absence of righting reflex 2) latency to tonic convulsions, characterized by the rigid extension of all four limbs that exceeded a 90 degree angle with the body 3) latency to death 4) number of clonic and tonic convulsions. Data are presented as mean±S.E.M and one-way analysis of variance with Dunnett's or Bonferroni's post-hoc test was used to detect significant differences in latency and number between the vehicle and dose group. p values<0.05 were regarded as statistically significant.

Each structure is given as a SMILES string. Bounds are passed on as bounds.

T1 sequence (P48169 36-554): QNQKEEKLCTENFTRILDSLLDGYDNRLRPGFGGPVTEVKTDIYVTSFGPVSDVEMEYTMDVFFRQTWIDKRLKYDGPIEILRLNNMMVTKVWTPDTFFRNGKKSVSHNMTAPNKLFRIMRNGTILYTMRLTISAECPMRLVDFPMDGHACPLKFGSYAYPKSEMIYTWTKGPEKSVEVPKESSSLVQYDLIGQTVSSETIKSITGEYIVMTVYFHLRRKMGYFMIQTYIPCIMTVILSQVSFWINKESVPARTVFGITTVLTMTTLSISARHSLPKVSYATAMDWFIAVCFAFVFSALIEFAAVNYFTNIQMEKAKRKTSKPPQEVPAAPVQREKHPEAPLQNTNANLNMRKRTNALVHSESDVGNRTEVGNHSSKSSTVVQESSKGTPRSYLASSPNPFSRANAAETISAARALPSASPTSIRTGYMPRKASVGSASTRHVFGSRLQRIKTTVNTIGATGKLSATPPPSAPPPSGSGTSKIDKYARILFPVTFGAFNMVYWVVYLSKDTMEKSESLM
T1 sequence (P28472 26-473): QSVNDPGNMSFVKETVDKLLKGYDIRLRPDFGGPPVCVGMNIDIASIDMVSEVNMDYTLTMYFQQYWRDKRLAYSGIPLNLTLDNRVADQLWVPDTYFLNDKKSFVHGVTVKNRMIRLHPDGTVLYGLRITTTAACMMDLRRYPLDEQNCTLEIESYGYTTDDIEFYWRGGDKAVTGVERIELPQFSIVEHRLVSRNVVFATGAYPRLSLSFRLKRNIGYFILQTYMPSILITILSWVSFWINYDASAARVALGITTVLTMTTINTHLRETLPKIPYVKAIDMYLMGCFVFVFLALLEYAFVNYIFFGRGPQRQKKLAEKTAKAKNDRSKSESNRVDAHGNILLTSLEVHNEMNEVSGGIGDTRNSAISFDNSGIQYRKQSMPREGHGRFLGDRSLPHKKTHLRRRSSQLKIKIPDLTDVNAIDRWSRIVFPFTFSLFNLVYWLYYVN
T1 sequence (O14764 17-452 partner limits assumed): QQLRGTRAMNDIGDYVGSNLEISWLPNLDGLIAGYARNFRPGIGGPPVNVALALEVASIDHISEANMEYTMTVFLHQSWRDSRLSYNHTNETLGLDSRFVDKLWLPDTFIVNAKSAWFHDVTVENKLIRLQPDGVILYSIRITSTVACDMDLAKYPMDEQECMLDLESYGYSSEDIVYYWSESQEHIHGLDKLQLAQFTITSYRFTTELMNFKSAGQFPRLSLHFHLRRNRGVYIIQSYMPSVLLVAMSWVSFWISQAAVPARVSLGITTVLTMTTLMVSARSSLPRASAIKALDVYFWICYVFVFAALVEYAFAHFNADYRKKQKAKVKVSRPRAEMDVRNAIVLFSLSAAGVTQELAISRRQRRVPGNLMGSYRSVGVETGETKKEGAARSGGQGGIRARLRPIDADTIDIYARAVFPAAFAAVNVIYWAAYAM

Consider `Cc1cnn(CC(=O)[C@H]2CC[C@H]3[C@@H]4CC[C@@H]5C[C@](C)(O)CC[C@@H]5[C@H]4CC[C@]23C)n1` [SA-3], for which the figures for the Emax at 10 µM in experiment [1] and in experiment [3] were over 500% and 100 to 500%, respectively. Moreover, the IC50 in experiment [2] is 1 to 50 nM. Also, in the experiment on male Sprague Dawley rats, the “Duration of Rat LRR” value was “B (B > 20 min)”.

The term minimal effective dose denotes the smallest amount tested that counted as effective. For the compound `Cc1nnn(CC(=O)[C@H]2CC[C@H]3[C@@H]4CC[C@@H]5C[C@](C)(O)CC[C@@H]5[C@H]4CC[C@]23C)n1` [SA-7], the Emax at 10 µM in experiment [1] and in experiment [3] was over 500% in each case. Besides, the minimal effective dose in experiment [4] is at most 1 mg/kg. Moreover, in experiment [2], the IC50 fell in the range of 1 to 50 nM. Also, the “Duration of Rat LRR” value with male Sprague Dawley rats was “B (B > 20 min)”.

With `Cc1nnn(CC(=O)[C@H]2CC[C@H]3[C@@H]4CC[C@H]5C[C@](C)(O)CC[C@@H]5[C@H]4CC[C@]23C)n1` [SB-5], the Emax at 10 µM in experiment [1] was over 500%; in experiment [3] it was 100 to 500%. Besides, the minimal effective dose in experiment [4] is at most 1 mg/kg. Besides, in the experiment with male Sprague Dawley rats, the “Duration of Rat LRR” value is “B (B > 20 min)”.

With `CC[C@@]1(O)CC[C@H]2[C@H](CC[C@@H]3[C@@H]2CC[C@]2(C)[C@@H](C(=O)Cn4nccn4)CC[C@@H]32)C1` [SE-4], the Emax at 10 µM in experiment [1] is over 500%; in experiment [3], 100 to 500%. Besides, the IC50 in experiment [2] is 50 to 100 nM. For the same compound, the “Duration of Rat LRR” value with male Sprague Dawley rats was “A (A ≤ 20 min)”.

On to `Cc1nnn(CC(=O)[C@H]2CC[C@H]3[C@@H]4CC[C@@H]5C[C@@](O)(CF)CC[C@@H]5[C@H]4CC[C@]23C)n1` [SF-3], for which the Emax at 10 µM in experiment [1] and in experiment [3] was 100 to 500% throughout. Besides, the minimal effective dose in experiment [4] was at most 1 mg/kg. For the same compound, the “Duration of Rat LRR” value in the experiment on male Sprague Dawley rats was “A (A ≤ 20 min)”.

Take `COC[C@@]1(O)CC[C@H]2[C@@H](CC[C@@H]3[C@@H]2CC[C@]2(C)[C@@H](C(=O)Cn4ccnn4)CC[C@@H]32)C1` [SI-2]: the results for the Emax at 10 µM in experiment [1] and in experiment [3] were over 500% and 100 to 500%, respectively. Also, in experiment [4], the minimal effective dose was 1 to 3 mg/kg. In experiment [2], the IC50 lay within 100 to 500 nM.

As to `COC[C@@]1(O)CC[C@H]2[C@@H](CC[C@@H]3[C@@H]2CC[C@]2(C)[C@@H](C(=O)Cn4nnc(C)n4)CC[C@@H]32)C1` [SI-4], the Emax at 10 µM in experiment [1] and in experiment [3] was 100 to 500% in each case. The minimal effective dose in experiment [4] is at most 1 mg/kg. In addition, the “Duration of Rat LRR” value in the experiment on male Sprague Dawley rats is recorded as “B (B > 20 min)”.

Turning to `C[C@@]1(O)CC[C@@H]2[C@H]3CC[C@]4(C)[C@@H](C(=O)Cn5ccnn5)CC[C@H]4[C@@H]3C[C@@H](F)[C@H]2C1` [SV-1], the Emax at 10 µM in experiment [1] and in experiment [3] was 100 to 500% in each case. In experiment [4], the minimal effective dose lay within 1 to 3 mg/kg. In addition, in experiment [2], the IC50 fell in the range of 100 to 500 nM.

`C[C@@]1(O)CC[C@@H]2[C@H]3CC[C@]4(C)[C@@H](C(=O)Cn5nccn5)CC[C@H]4[C@@H]3C[C@@H](F)[C@H]2C1` [SV-2]: the Emax at 10 µM in experiment [1] and in experiment [3] was 100 to 500% each time. In experiment [4], the minimal effective dose was at most 1 mg/kg. In addition, the IC50 in experiment [2] lay within 50 to 100 nM. Further, the “Duration of Rat LRR” value with male Sprague Dawley rats is “B (B > 20 min)”.

In the case of `C[C@@]1(O)CC[C@@H]2[C@H]3CC[C@]4(C)[C@@H](C(=O)Cn5ncnn5)CC[C@H]4[C@@H]3C[C@@H](F)[C@H]2C1` [SV-3], the results for the Emax at 10 µM in experiment [1] and in experiment [3] were over 500% and 100 to 500%, respectively. In addition, in the experiment with male Sprague Dawley rats, the “Duration of Rat LRR” value was “A (A ≤ 20 min)”.

For the compound `Cc1nnn(CC(=O)[C@H]2CC[C@H]3[C@@H]4C[C@@H](F)[C@H]5C[C@](C)(O)CC[C@@H]5[C@H]4CC[C@]23C)n1` [SV-5], the Emax at 10 µM in experiment [1] and in experiment [3] was 100 to 500% in each case. Further, in experiment [4], the minimal effective dose is at most 1 mg/kg. In addition, the “Duration of Rat LRR” value with male Sprague Dawley rats is “B (B > 20 min)”.
